Measured values reported in ChEMBL document CHEMBL1201862, “PubChem BioAssay data set” (2004).
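A five-concentration, 48-hour dose response in 96-well plates underlies each endpoint, interpolated linearly between surrounding concentrations. GI50 marks 50% less growth.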 Active and inactive are the calls of the source. Rule as the data show it: active = GI50 up to about 1.1 µM and inactive = higher.

Columns and labels:
Assay in all cases: NCI tumour cell line growth inhibition, 48 h
786-0 = tested on: 786-0
A498 = tested on: A498
A549 = tested on: A549
ACHN = tested on: ACHN
BT-549 = tested on: BT-549
CAKI-1 = tested on: CAKI-1
CCRF-CEM = tested on: CCRF-CEM
COLO 205 = tested on: COLO 205
DU-145 = tested on: DU-145
EKVX = tested on: EKVX
HCC 2998 = tested on: HCC 2998
HCT-116 = tested on: HCT-116
HCT-15 = tested on: HCT-15
HL-60 = tested on: HL-60
HOP-62 = tested on: HOP-62
HT-29 = tested on: HT-29
Hs-578T = tested on: Hs-578T
IGROV-1 = tested on: IGROV-1
K562 = tested on: K562
KM12 = tested on: KM12
LOX IMVI = tested on: LOX IMVI
M14 = tested on: M14
MCF7 = tested on: MCF7
MDA-MB-231 = tested on: MDA-MB-231
MDA-MB-435 = tested on: MDA-MB-435
MDA-N = tested on: MDA-N
MOLT-4 = tested on: MOLT-4
Malme-3M = tested on: Malme-3M
NCI-H226 = tested on: NCI-H226
NCI-H23 = tested on: NCI-H23
NCI-H460 = tested on: NCI-H460
NCI-H522 = tested on: NCI-H522
OVCAR-8 = tested on: OVCAR-8
PC-3 = tested on: PC-3
RPMI-8226 = tested on: RPMI-8226
SF-268 = tested on: SF-268
SF-295 = tested on: SF-295
SF-539 = tested on: SF-539
SK-MEL-28 = tested on: SK-MEL-28
SK-MEL-5 = tested on: SK-MEL-5
SK-OV-3 = tested on: SK-OV-3
SN12C = tested on: SN12C
SNB-19 = tested on: SNB-19
SR = tested on: SR
SW-620 = tested on: SW-620
T47D = tested on: T47D
TK-10 = tested on: TK-10
UACC-257 = tested on: UACC-257
UACC-62 = tested on: UACC-62
UO-31 = tested on: UO-31
HOP-92 = tested on: HOP-92
OVCAR-3 = tested on: OVCAR-3
OVCAR-4 = tested on: OVCAR-4
OVCAR-5 = tested on: OVCAR-5
RXF 393 = tested on: RXF 393
SK-MEL-2 = tested on: SK-MEL-2
SNB-75 = tested on: SNB-75
U-251 = tested on: U-251

COc1cc2c(c(OC)c1)C(C)=NC(C)C2 (stereo not drawn)
GI50 (786-0): > 100 µM (inactive) | GI50 (A498): > 100 µM (inactive) | GI50 (A549): > 100 µM (inactive) | GI50 (ACHN): > 100 µM (inactive) | GI50 (BT-549): > 100 µM (inactive) | GI50 (CAKI-1): > 100 µM (inactive) | GI50 (CCRF-CEM): > 100 µM (inactive) | GI50 (COLO 205): > 100 µM (inactive) | GI50 (DU-145): > 100 µM (inactive) | GI50 (EKVX): > 100 µM (inactive) | GI50 (HCC 2998): > 100 µM (inactive) | GI50 (HCT-116): 51.2 µM (inactive) | GI50 (HCT-15): > 100 µM | GI50 (HL-60): > 100 µM (inactive) | GI50 (HOP-62): > 100 µM (inactive) | GI50 (HT-29): > 100 µM (inactive) | GI50 (Hs-578T): > 100 µM (inactive) | GI50 (IGROV-1): > 100 µM (inactive) | GI50 (K562): > 100 µM (inactive) | GI50 (KM12): > 100 µM (inactive) | GI50 (LOX IMVI): > 100 µM (inactive) | GI50 (M14): > 100 µM (inactive) | GI50 (MCF7): > 100 µM (inactive) | GI50 (MDA-MB-231): > 100 µM (inactive) | GI50 (MDA-MB-435): > 100 µM (inactive) | GI50 (MDA-N): > 100 µM (inactive) | GI50 (MOLT-4): > 100 µM (inactive) | GI50 (Malme-3M): > 100 µM (inactive) | GI50 (NCI-H226): > 100 µM (inactive) | GI50 (NCI-H23): > 100 µM (inactive) | GI50 (NCI-H460): > 100 µM (inactive) | GI50 (NCI-H522): 76.7 µM (inactive) | GI50 (OVCAR-8): > 100 µM (inactive) | GI50 (PC-3): > 100 µM (inactive) | GI50 (RPMI-8226): > 100 µM (inactive) | GI50 (SF-268): > 100 µM (inactive) | GI50 (SF-295): > 100 µM (inactive) | GI50 (SF-539): > 100 µM (inactive) | GI50 (SK-MEL-28): > 100 µM (inactive) | GI50 (SK-MEL-5): > 100 µM (inactive) | GI50 (SK-OV-3): > 100 µM (inactive) | GI50 (SN12C): > 100 µM (inactive) | GI50 (SNB-19): > 100 µM (inactive) | GI50 (SR): > 100 µM (inactive) | GI50 (SW-620): > 100 µM (inactive) | GI50 (T47D): > 100 µM (inactive) | GI50 (TK-10): > 100 µM (inactive) | GI50 (UACC-257): > 100 µM (inactive) | GI50 (UACC-62): > 100 µM (inactive) | GI50 (UO-31): > 100 µM (inactive)

CCCC(=O)C1=C(O)C(Cc2c(O)c(C)c(O)c(C(=O)CCC)c2O)=C(O)C(C)(C)C1=O
GI50 (786-0): > 50 µM (inactive) | GI50 (A498): 46.8 µM (inactive) | GI50 (A549): 25.2 µM (inactive) | GI50 (ACHN): > 50 µM (inactive) | GI50 (BT-549): > 50 µM (inactive) | GI50 (CAKI-1): > 50 µM (inactive) | GI50 (CCRF-CEM): 0.421 µM (active) | GI50 (COLO 205): 19.4 µM (inactive) | GI50 (DU-145): > 50 µM (inactive) | GI50 (EKVX): > 50 µM (inactive) | GI50 (HCC 2998): 10.9 µM (inactive) | GI50 (HCT-116): 12.6 µM (inactive) | GI50 (HCT-15): 20 µM | GI50 (HOP-62): 31.8 µM (inactive) | GI50 (HOP-92): 10.2 µM (inactive) | GI50 (HT-29): 20.4 µM (inactive) | GI50 (Hs-578T): 40.6 µM (inactive) | GI50 (IGROV-1): 37 µM (inactive) | GI50 (K562): 15.4 µM (inactive) | GI50 (KM12): 23.8 µM (inactive) | GI50 (LOX IMVI): 19 µM (inactive) | GI50 (M14): > 50 µM (inactive) | GI50 (MCF7): 21.9 µM (inactive) | GI50 (MDA-MB-231): > 50 µM (inactive) | GI50 (MDA-MB-435): > 50 µM (inactive) | GI50 (MDA-N): > 50 µM (inactive) | GI50 (MOLT-4): 11 µM (inactive) | GI50 (NCI-H23): 15.8 µM (inactive) | GI50 (NCI-H460): 14.3 µM (inactive) | GI50 (OVCAR-3): > 50 µM (inactive) | GI50 (OVCAR-4): 43.6 µM (inactive) | GI50 (OVCAR-5): 11.9 µM (inactive) | GI50 (OVCAR-8): > 50 µM (inactive) | GI50 (PC-3): 19.1 µM (inactive) | GI50 (RPMI-8226): 17 µM (inactive) | GI50 (RXF 393): 17 µM (inactive) | GI50 (SF-268): 34.8 µM (inactive) | GI50 (SF-295): 16.9 µM (inactive) | GI50 (SK-MEL-28): 16.2 µM (inactive) | GI50 (SK-MEL-2): 22.4 µM (inactive) | GI50 (SK-MEL-5): > 50 µM (inactive) | GI50 (SK-OV-3): 22.6 µM (inactive) | GI50 (SN12C): > 50 µM (inactive) | GI50 (SNB-19): 20.7 µM (inactive) | GI50 (SNB-75): 29.4 µM (inactive) | GI50 (SR): 14.7 µM (inactive) | GI50 (SW-620): 13.9 µM (inactive) | GI50 (T47D): 49.2 µM (inactive) | GI50 (TK-10): 30.6 µM (inactive) | GI50 (U-251): 22.9 µM (inactive) | GI50 (UACC-257): > 50 µM (inactive) | GI50 (UACC-62): > 50 µM (inactive) | GI50 (UO-31): 15.6 µM (inactive)
